Where two headings read alike, the source gives them in different places.
How the values were obtained:
[1] = molecular target: α-Glucosidase (from baker's yeast); settings: cited from earlier work
[2] = molecular target: α-Galactosidase (from green coffee beans); settings: cited from earlier work
S. aureus (ATCC 29213) = test: Minimal inhibitory concentration, broth microdilution; type: cell-based, Staphylococcus aureus; settings: for MIC: Staphylococcus aureus, ATCC29213; for antibacterial activity against S. aureus ATCC 29213: in words
Experimental: (§1) The minimal inhibitory concentrations (MICs) were determined against the bacterial strains S. aureus (ATCC 29213) and E. coli (ATCC 25922), and the results are presented in Table S6.
(§2) Antimicrobial testing was carried out by the broth microdilution method in a 96-well plate format following the CLSI guidelines and European Committee for Antimicrobial Susceptibility Testing (EUCAST) recommendations. Bacterial suspension of a specific bacterial strain equivalent to 0.5 McFarland turbidity standard was diluted with cation-adjusted Mueller Hinton broth to obtain a final inoculum of 10^5 CFU/mL. Compounds dissolved in 20% DMSO and inoculum were mixed together and incubated for 20 h at 35 °C. After incubation, the minimal inhibitory concentration (MIC) values were determined by visual inspection as the lowest dilution of compounds showing no turbidity. The MICs were determined against S. aureus (ATCC 29213) and E. coli (ATCC 25922) bacterial strains. Tetracycline was used as a positive control on every assay plate, showing MICs of 0.5 µg/mL and 1 µg/mL for S. aureus and E. coli, respectively.

[3] = molecular target: β-galactocerebrosidase (GALC); settings: cited from earlier work
naringinase (Nar) = settings: cited from earlier work
E. coli (ATCC 25922) = test: Minimal inhibitory concentration, broth microdilution (negative control strain); type: cell-based; settings: Escherichia coli, ATCC25922
Experimental: as §1, §2

[4] = molecular target: β-Galactosidase (from bovine liver); settings: cited from earlier work
[5] = molecular target: β-Glucosidase (from almond); settings: cited from earlier work
[6] = molecular target: human recombinant β-glucocerebrosidase (GBA); settings: cited from earlier work
[7] = pH 7.2, p-nitrophenyl-a-d-glucopyranoside, footnote **
[8] = pH 6.8, p-nitrophenyl-a-d-galactopyranoside, footnote **
[9] = broth microdilution, 20 h at 35 °C, read-out: MIC S. aureus ATCC29213
[10] = broth microdilution, 20 h at 35 °C, read-out: MIC E. coli ATCC25922
[11] = pH 5.0, p-nitrophenyl-b-d-glucopyranoside, footnote **
[12] = pH 5.2, footnote **, read-out: IC50 GBA pH 5.2
[13] = pH 7.0, footnote **, read-out: IC50 GBA pH 7.0

Structure (SMILES) | IC50 [1, 7] [µM] | IC50 [2, 8] [µM] | MIC (S. aureus (ATCC 29213); [9]) [µM] | antibacterial activity against S. aureus ATCC 29213 (S. aureus (ATCC 29213)) | IC50 ([3]; footnote **) [µM] | IC50 (naringinase (Nar); footnote **) [µM] | MIC (E. coli (ATCC 25922); [10]) [µM] | IC50 ([4]; footnote **) [µM] | IC50 [5, 11] [µM] | IC50 [6, 12] [µM] | IC50 [6, 13] [µM] | also measured
CCCCCCCCCCCCNC(=O)N1CC(O)C(O)C(O)C1 (stereo not drawn) [Compound 9] | > 100 | > 100 | 250 | modest antibacterial activities | > 10 | > 100 | > 500 | 12.9 ± 1.9 | > 100 | > 10 | > 10 | –
CCCCCCCCCCCCCCNC(=O)N1CC(O)C(O)C(O)C1 (stereo not drawn) [Compound 10] | > 100 | > 100 | > 500 | – | > 10 | > 100 | > 500 | 34.2 ± 1.9 | > 100 | > 10 | > 10 | –
CCCCCCCCCCCCNC(=N)N1CC(O)C(O)C(O)C1 (stereo not drawn) [Compound 4] | > 100 | > 100 | 62.5 | modest antibacterial activities | > 10 | 37.2 ± 1.7 | 500 | 0.7 ± 0.1 | 10.7 ± 0.3 | 0.04 ± 0.01 | 0.02 ± 0.001 | –
CCCCCCCCCCCCCCNC(=N)N1CC(O)C(O)C(O)C1 (stereo not drawn) [Compound 5] | > 100 | > 100 | 15 | modest antibacterial activities | > 10 | 33.5 ± 1.7 | 125 | 1.6 ± 0.2 | 2.8 ± 0.1 | 0.04 ± 0.01 | 0.02 ± 0.001 | –
CCCCCCCCCCN(CCCCCCCCCC)C(=O)CNC(=O)N1CC(O)C(O)C(O)C1 (stereo not drawn) [Compound 16] | > 100 | > 100 | – | – | > 10 | > 100 | – | 12.5 ± 2.9 | > 100 | > 10 | > 10 | –
CN(C)[C@@H]1C(O)=C(C(N)=O)C(=O)[C@@]2(O)C(O)=C3C(=O)c4c(O)cccc4[C@@](C)(O)[C@H]3C[C@@H]12 [Tetracycline, reference compound] | – | – | – | – | – | – | – | – | – | – | – | MIC (S. aureus (ATCC 29213); positive control on every assay plate, read-out: MIC S. aureus): 0.5 µg/mL; MIC (E. coli (ATCC 25922); positive control on every assay plate, read-out: MIC E. coli): 1 µg/mL
CCCCCCCCOC1OCC(CNC(=N)N2CC(O)C(O)C(O)C2)O1 (stereo not drawn) [Compound 17] | – | – | – | – | – | – | – | – | – | – | – | IC50 ([1]; pH 7.2, p-nitrophenyl-α-D-glucopyranoside, footnote ***): > 30 µM; IC50 ([2]; pH 6.8, p-nitrophenyl-α-D-galactopyranoside, footnote ***): > 30 µM; IC50 ([3]; footnote ***): > 30 µM; IC50 (naringinase (Nar); footnote ***): > 30 µM; IC50 ([4]; footnote ***): > 30 µM; IC50 ([5]; pH 5.0, p-nitrophenyl-β-D-glucopyranoside, footnote ***): 14.6 ± 0.6 µM; IC50 ([6]; pH 5.2, footnote ***, read-out: IC50 GBA pH 5.2): > 30 µM; IC50 ([6]; pH 7.0, footnote ***, read-out: IC50 GBA pH 7.0): 0.03 ± 0.01 µM
CCCCCCCCNC(=N)N1CC(O)C(O)C(O)C1 (stereo not drawn) [Compound 15] | > 100 | > 100 | – | – | > 10 | 53 ± 2.2 | – | < 0.1 | 38.1 ± 1.5 | 0.99 ± 0.09 | 0.24 ± 0.02 | –
